What all share (settings): 4 mM UDP-glucose, pH 7.5, 30 °C, 10 mM DTT
The test system of data set [1] is T1, UGT72AD1.
T1 construct: full-length ORF cloned from leaf cDNA; MBP fusion (pMAL-c2x), E. coli Novablue, maltose-resin purified
In words: HPLC glucosylation assay. Type of data set: biochemical, Lotus japonicus.

Substrate in data set [2]: O=c1c(O)c(-c2ccc(O)cc2)oc2cc(O)cc(O)c12
The data set can be described thus: HPLC glucosylation assay. Type of data set: biochemical, Lotus japonicus. From the text:
(§1) HPLC glucosylation assay on UGT72Z2 | UGT72Z2 ...

Substrate in data set [3]: O=c1c(O)c(-c2ccc(O)c(O)c2)oc2cc(O)cc(O)c12
In words: HPLC glucosylation assay. Type of data set: biochemical, Lotus japonicus.
Excerpt: as §1

Substrate in data set [4]: O=c1c(O)c(-c2cc(O)c(O)c(O)c2)oc2cc(O)cc(O)c12
The data set can be described thus: purified protein.

Consider `O=c1c(O)c(-c2ccc(O)cc2)oc2cc(O)cc(O)c12` [kaempferol], for which, in data set [1], the Michaelis-Menten constant (Km) (usually the concentration of substrate that gives half-maximal velocity) turned out to be 330 µM.

Take `O=c1c(O)c(-c2cc(O)c(O)c(O)c2)oc2cc(O)cc(O)c12` [myricetin]: the Michaelis-Menten constant (Km) in data set [1] stood at 390 µM.

For `O=c1c(O)c(-c2ccc(O)c(O)c2)oc2cc(O)cc(O)c12` [quercetin], the Km in data set [1] came to 310 µM.

B1: UGT72Z2 (Lotus japonicus) (protein)
chain: MAKTIHIAAVSIPAFSHQASIIEFCKKLLHLHHHYHVTCIFPTIDAPVAATLKLLQSLPSTIDFKFLPPVNKQDLPQDVSPAVQIQLAVSQSMPSFRDTMRSLHSTTPHLTALIADPFANEALEIGKEFNLLSYIYFPPSAMTLSLFLHLPKLHEEVSCEYRDLTEPIQIPGCIPIQGQDLPEHFQDRSSLAYDLILKRCKRFSLADGFLVNSFLELEEGTVKALQEQNRGNRGENRGNRGKNRGNRDSPVFLVGPVIQTGPSSEPKGSESEYCVRWLENQIPKSVLYVSFGSGGTLSQEQMNELAFGLELSGQKFLWVVRAPSDSANAAYLGVGNEDPLKFLPSGFIERTKGQGLVIPSWAPQTQILSHSSIGGFLTHCGWNSVLESIVLGVPMITWPLFAEQRMNAVLLTDGVKVALRPKFDENGIVKREEIAVVVKGLMQGEEGNGIHHRIEVLKEAAADALKEDGSSTRALSQFGNQIENFLALK
notes: full-length ORF cloned from leaf cDNA; MBP fusion (pMAL-c2x), E. coli Novablue, maltose-resin purified
B1: the results for the Km in data set [2], in data set [3] and in data set [4] were 40 µM, 68 µM and 46 µM, respectively.

For the origin of these results see article PMC5444469, “Involvement of three putative glucosyltransferases from the UGT72 family in flavonol glucoside/rhamnoside biosynthesis in Lotus japonicus seeds” (Journal of Experimental Botany, 2016).
